Target: T1, Bcl-2 protein (Recombinant Human Bcl-2 Protein) (Homo sapiens, UniProt P10415)
T1 construct: purchased Novus NBP2-34889
Assay: Binding evaluation of mixture library compounds to Bcl-2 using AS-MS (affinity selection mass spectrometry)
Details: for ASMS ratio (%) n = 1 / ASMS ratio (%) n = 2: ASMS Ratio(%)=(A−C)/B×100; for ASMS ratio (%) n = 1: replicate n = 1; for ASMS ratio (%) n = 2: replicate n = 2
In short: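 ASMS Ratio (%) was calculated as (A−C)/B×100, where A is the protein sample after SEC, B the protein-free sample without SEC and C the protein-free sample after SEC. Each compound was at […] in a 1200-member pool with 20 μM Bcl-2, incubated 1 h at 23° C.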

[1] = AS-MS on the mixture of 1200 library compounds
[2] = AS-MS, mixture of 1200 compounds, Bcl-2

T1 sequence (P10415 whole entry): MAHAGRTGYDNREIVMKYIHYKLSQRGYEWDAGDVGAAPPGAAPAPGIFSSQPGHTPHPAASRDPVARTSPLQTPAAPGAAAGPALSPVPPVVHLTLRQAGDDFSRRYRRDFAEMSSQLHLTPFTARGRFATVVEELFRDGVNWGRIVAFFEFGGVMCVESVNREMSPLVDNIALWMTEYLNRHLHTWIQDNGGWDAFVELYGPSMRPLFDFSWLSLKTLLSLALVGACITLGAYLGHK

CCOc1cncc(-c2csc(C(=O)N3CCN(c4ccc(C(=O)NS(=O)(=O)CCC(F)(F)F)nn4)CC3)c2)c1 [B2N002-01, 6-[4-[4-(5-Ethoxypyridin-3-yl)thiophene-2-carbonyl]piperazin-1-yl]-N-(3,3,3-trifluoropropylsulfonyl)pyridazine-3-carboxamide]
ASMS ratio (%) (n = 1): 0.0%
ASMS ratio (%) (n = 2): 0.0%

CCOc1cccc(-c2ccc(C(=O)N3CCN(c4ccc(C(=O)N(CC)CC)nn4)CC3)cc2F)c1 [B4J005-01, 6-[4-[4-(3-Ethoxyphenyl)-3-fluorobenzoyl]piperazin-1-yl]-N,N-diethylpyridazine-3-carboxamide]
ASMS ratio (%) n = 1 [1]: −0.4%
ASMS ratio (%) n = 2 [1]: 2.1%

CCOc1cncc(-c2cc(C(=O)N3CCN(c4ccc(C(=O)NS(=O)(=O)CC56CC7CC(CC(C7)C5)C6)cc4)CC3)cc(C(C)(C)C)c2)c1 [B2A038-01, N-(1-Adamantylmethylsulfonyl)-4-[4-[3-tert-butyl-5-(5-ethoxypyridin-3-yl)benzoyl]piperazin-1-yl]benzamide]
ASMS ratio (%) n = 1 (AS-MS, mixture library, Bcl-2): 1.8%
ASMS ratio (%) n = 2 (AS-MS, mixture library, Bcl-2): −3.5%

6-[4-[3-(5-Ethoxypyridin-3-yl)-5-(trifluoromethyl)benzoyl]piperazin-1-yl]-N-propylpyridazine-3-carboxamide [B1M007-01]
ASMS ratio (%) n = 1 [2]: 0.3%
ASMS ratio (%) n = 2 [2]: 0.3%

CCOc1cncc(-c2ccccc2CN2CCN(c3ccc(C(=O)NS(=O)(=O)c4ccc(NCCSc5ccccc5)c([N+](=O)[O-])c4)nn3)CC2)c1 [B2Q072-01, 6-[4-[[2-(5-Ethoxypyridin-3-yl)phenyl]methyl]piperazin-1-yl]-N-[3-nitro-4-(2-phenylsulfanylethylamino)phenyl]sulfonylpyridazine-3-carboxamide]
ASMS ratio (%) n = 1 (AS-MS, mixture library, Bcl-2): 10.2%
ASMS ratio (%) n = 2 (AS-MS, mixture library, Bcl-2): 11.4%

CCOc1cccc(-c2ccc(CN3CCN(c4ccc(C(=O)NS(=O)(=O)c5ccc(NCCSc6ccccc6)c([N+](=O)[O-])c5)nn4)CC3)cc2F)c1 [B2Q077-01, 6-[4-[[4-(3-Ethoxyphenyl)-3-fluorophenyl]methyl]piperazin-1-yl]-N-[3-nitro-4-(2-phenylsulfanylethylamino)phenyl]sulfonylpyridazine-3-carboxamide]
ASMS ratio (%) n = 1 (AS-MS, mixture library, Bcl-2): 14.7%
ASMS ratio (%) n = 2 (AS-MS, mixture library, Bcl-2): 17.2%

CCOc1cccc(-c2cc(CN3CCN(c4ccc(C(=O)NS(=O)(=O)c5ccc(NCCSc6ccccc6)c(C(F)(F)F)c5)nn4)CC3)cc(OC(C)C)c2)c1 [B2R083-01, 6-[4-[[3-(3-Ethoxyphenyl)-5-propan-2-yloxyphenyl]methyl]piperazin-1-yl]-N-[4-(2-phenylsulfanylethylamino)-3-(trifluoromethyl)phenyl]sulfonylpyridazine-3-carboxamide]
ASMS ratio (%) (n = 1): 31.9%
ASMS ratio (%) (n = 2): −11.1%

CCOc1cncc(C#Cc2ccccc2C(=O)N2CCN(c3ccc(C(=O)N(CC)CC)nn3)CC2)c1 [B4J008-01, 6-[4-[2-[2-(5-Ethoxypyridin-3-yl)ethynyl]benzoyl]piperazin-1-yl]-N,N-diethylpyridazine-3-carboxamide]
ASMS ratio (%) n = 1 [1]: 0.0%
ASMS ratio (%) n = 2 [1]: 0.0%

6-[4-[[3-(5-Ethoxypyridin-3-yl)-5-(trifluoromethoxy)phenyl]methyl]piperazin-1-yl]-N-propylpyridazine-3-carboxamide [B1M035-01]
ASMS ratio (%) n = 1 [2]: 2.9%
ASMS ratio (%) n = 2 [2]: −1.7%

CCOc1cccc(-c2ccc(C(=O)N3CCN(c4ccc(C(=O)NS(=O)(=O)C(C)(C)C)cc4)CC3)cc2F)c1 [B2L027-01, N-tert-Butylsulfonyl-4-[4-[4-(3-ethoxyphenyl)-3-fluorobenzoyl]piperazin-1-yl]benzamide]
ASMS ratio (%) (n = 1): 0.0%
ASMS ratio (%) (n = 2): 0.0%

CCOc1cncc(-c2ccc(CN3CCN(c4ccc(C(=O)N(C)CC56CC7CC(CC(C7)C5)C6)nn4)CC3)cc2C)c1 [B3A074-01, N-(1-Adamantylmethyl)-6-[4-[[4-(5-ethoxypyridin-3-yl)-3-methylphenyl]methyl]piperazin-1-yl]-N-methylpyridazine-3-carboxamide]
ASMS ratio (%) n = 1 [1]: 10.7%
ASMS ratio (%) n = 2 [1]: −17.2%

CCOc1cncc(-c2ccc(CN3CCN(c4ccc(C(=O)NCC(F)(F)F)cc4)CC3)cc2C)c1 [B1K048-01, 4-[4-[[4-(5-Ethoxypyridin-3-yl)-3-methylphenyl]methyl]piperazin-1-yl]-N-(2,2,2-trifluoroethyl)benzamide]
ASMS ratio (%) n = 1 [2]: 0.1%
ASMS ratio (%) n = 2 [2]: 1.2%

CCOc1cncc(C#Cc2ccccc2CN2CCN(c3ccc(C(=O)NS(=O)(=O)CCC(F)(F)F)cc3)CC2)c1 [B2N070-01, 4-[4-[[2-[2-(5-Ethoxypyridin-3-yl)ethynyl]phenyl]methyl]piperazin-1-yl]-N-(3,3,3-trifluoropropylsulfonyl)benzamide]
ASMS ratio (%) (n = 1): 0.0%
ASMS ratio (%) (n = 2): 0.0%

CCOc1cncc(-c2cc(CN3CCN(c4ccc(C(=O)NS(=O)(=O)c5ccc(NCCSc6ccccc6)c([N+](=O)[O-])c5)cc4)CC3)cc(OC(F)(F)F)c2)c1 [B2Q064-01]
ASMS ratio (%) n = 1 (AS-MS, mixture library, Bcl-2): 8.6%
ASMS ratio (%) n = 2 (AS-MS, mixture library, Bcl-2): −1.6%

CCOc1cccc(-c2ccccc2CCC(=O)N2CCN(c3ccc(C(=O)NS(=O)(=O)c4ccc(NCCSc5ccccc5)c([N+](=O)[O-])c4)nn3)CC2)c1 [B2Q011-01, 6-[4-[3-[2-(3-Ethoxyphenyl)phenyl]propanoyl]piperazin-1-yl]-N-[3-nitro-4-(2-phenylsulfanylethylamino)phenyl]sulfonylpyridazine-3-carboxamide]
ASMS ratio (%) n = 1 (AS-MS, mixture library, Bcl-2): 25.0%
ASMS ratio (%) n = 2 (AS-MS, mixture library, Bcl-2): −1.1%

CCOc1cncc(C#Cc2ccccc2C(=O)N2CCN(c3ccc(C(=O)N(C)CC45CC6CC(CC(C6)C4)C5)cc3)CC2)c1 [B3A030-01, N-(1-Adamantylmethyl)-4-[4-[2-[2-(5-ethoxypyridin-3-yl)ethynyl]benzoyl]piperazin-1-yl]-N-methylbenzamide]
ASMS ratio (%) n = 1 [1]: 8.4%
ASMS ratio (%) n = 2 [1]: −15.2%

CCOc1cccc(-c2cc(CN3CCN(c4ccc(C(=O)NCC(F)(F)F)cc4)CC3)cc(OCC)c2)c1 [B1K055-01, 4-[4-[[3-Ethoxy-5-(3-ethoxyphenyl)phenyl]methyl]piperazin-1-yl]-N-(2,2,2-trifluoroethyl)benzamide]
ASMS ratio (%) n = 1 [2]: −0.8%
ASMS ratio (%) n = 2 [2]: 0.0%

CCOc1cccc(-c2cc(OC)c(CN3CCN(c4ccc(C(=O)Nc5ccc(OC)cc5)nn4)CC3)c(OC)c2)c1 [B1O085-01, 6-[4-[[4-(3-Ethoxyphenyl)-2,6-dimethoxyphenyl]methyl]piperazin-1-yl]-N-(4-methoxyphenyl)pyridazine-3-carboxamide]
ASMS ratio (%) n = 1 [1]: −1.1%
ASMS ratio (%) n = 2 [1]: −3.1%

CCOc1cncc(-c2cc(C(=O)N3CCN(c4ccc(C(=O)Nc5ccc(OC)cc5)nn4)CC3)cc(C(F)(F)F)c2)c1 [B1O018-01, 6-[4-[3-(5-Ethoxypyridin-3-yl)-5-(trifluoromethyl)benzoyl]piperazin-1-yl]-N-(4-methoxyphenyl)pyridazine-3-carboxamide]
ASMS ratio (%) n = 1 [1]: 1.0%
ASMS ratio (%) n = 2 [1]: 3.2%

CCOc1cncc(-c2ccc(C(=O)N3CCN(c4ccc(C(=O)NCC(F)(F)F)cc4)CC3)cc2F)c1 [B1K028-01, 4-[4-[4-(5-Ethoxypyridin-3-yl)-3-fluorobenzoyl]piperazin-1-yl]-N-(2,2,2-trifluoroethyl)benzamide]
ASMS ratio (%) n = 1 [2]: 0.0%
ASMS ratio (%) n = 2 [2]: 0.0%

CCOc1cccc(-c2ccc(CN3CCN(c4ccc(C(=O)NS(=O)(=O)CCC(F)(F)F)nn4)CC3)c3ccccc23)c1 [B2N091-01, 6-[4-[[4-(3-Ethoxyphenyl)naphthalen-1-yl]methyl]piperazin-1-yl]-N-(3,3,3-trifluoropropylsulfonyl)pyridazine-3-carboxamide]
ASMS ratio (%) (n = 1): 0.0%
ASMS ratio (%) (n = 2): 0.0%

CCOc1cncc(-c2cc(CN3CCN(c4ccc(C(=O)NS(=O)(=O)c5ccc(NCCSc6ccccc6)c(C(F)(F)F)c5)cc4)CC3)cc(C(F)(F)F)c2)c1 [B2R062-01, 4-[4-[[3-(5-Ethoxypyridin-3-yl)-5-(trifluoromethyl)phenyl]methyl]piperazin-1-yl]-N-[4-(2-phenylsulfanylethylamino)-3-(trifluoromethyl)phenyl]sulfonylbenzamide]
ASMS ratio (%) (n = 1): 0.0%
ASMS ratio (%) (n = 2): 0.0%

4-[4-[4-(5-Ethoxypyridin-3-yl)naphthalene-1-carbonyl]piperazin-1-yl]-N-propylbenzamide [B1M074-01]
ASMS ratio (%) n = 1 [2]: −1.6%
ASMS ratio (%) n = 2 [2]: 0.9%

CCOc1cncc(-c2cc(CN3CCN(c4ccc(C(=O)NS(=O)(=O)c5ccc(NCCSc6ccccc6)c(C(F)(F)F)c5)cc4)CC3)cc(OC(C)C)c2)c1 [B2R058-01, 4-[4-[[3-(5-Ethoxypyridin-3-yl)-5-propan-2-yloxyphenyl]methyl]piperazin-1-yl]-N-[4-(2-phenylsulfanylethylamino)-3-(trifluoromethyl)phenyl]sulfonylbenzamide]
ASMS ratio (%) (n = 1): 13.0%
ASMS ratio (%) (n = 2): 4.8%

CCOc1cccc(-c2cc(CN3CCN(c4ccc(C(=O)Nc5ccc(OC)cc5)cc4)CC3)cc(OCC)c2)c1 [B1O055-01]
ASMS ratio (%) n = 1 [1]: 3.0%
ASMS ratio (%) n = 2 [1]: −4.2%

CCOc1cncc(-c2cc(C(=O)N3CCN(c4ccc(C(=O)NS(=O)(=O)CCC(F)(F)F)nn4)CC3)cc(C(F)(F)F)c2)c1 [B2N018-01, 6-[4-[3-(5-Ethoxypyridin-3-yl)-5-(trifluoromethyl)benzoyl]piperazin-1-yl]-N-(3,3,3-trifluoropropylsulfonyl)pyridazine-3-carboxamide]
ASMS ratio (%) (n = 1): 0.0%
ASMS ratio (%) (n = 2): 1.0%

Reference: patent US20240132431A1, “METHOD FOR ALKYLATING ACIDIC FUNCTIONAL GROUP” (Chugai Seiyaku Kabushiki Kaisha, priority 2021, published 2024)
